Reference: US8835433B2, “Optically pure diastereomers of 10-Propargyl-10-deazaaminopterin and methods of using same for the treatment of cancer” (Allos Therapeutics, Inc., priority 2010, dated 2014)

Columns and labels:
[1] = tested on: CWR22-RV1 (prostate) cell lines; test: MTS growth inhibition assay, CWR22-RV1; type: cell-based; conditions: Homo sapiens, CWR22Rv1, separate experiments
[2] = tested on: SKBR-3 (breast cancer) human tumor cell line; test: MTS growth inhibition assay, SKBR-3; type: cell-based; conditions: SK-BR-3, SK-BR3 (breast), 3 h treatment, 72 h recovery
Protocol: (§1) The agents PDX, PDX-10a, PDX-10b, were evaluated for growth inhibitory activity against, MDA-MB-435, SKBR-3 and NCI-H460 human tumor cell lines. Growth inhibition was measured by MTS assay following three hours of continuous treatment and a seventy-two hour recovery incubation. The purpose of these studies was to determine the cytotoxic activity of the compounds in the tumor cell lines studies studied.
Materials and Methods. Preparation of PDX-10a and PDX-10b was performed as discussed in Examples 1-2. The PDX compounds were diluted in dimethylsulfoxide (DMSO) at a concentration of 20 mM. From this solution a stock solution of 2 mM was made by dilution with phosphate-buffered saline (PBS). This 2 mM stock solution in 10% DMSO/90% PBS was used to make 2× concentrations of the titration series in cell growth medium which was added to the cell cultures in a 1:1 ratio to make 1× concentrations. Cell lines—The human tumor cell lines: MDA-MB-435 (melanoma), SKBR-3 (breast cancer) and NCI-H460 (lung cancer) were cultured in RPMI medium (RPMI; Nova Tech, Grand Island, N.Y.) containing ten percent dialyzed fetal bovine serum (FBS; Nova Tech). […]
Single Agent Pulse Studies—Treatment with test agents or standard agents (controls) was initiated 24 hours after plating cells (Day 1). […] Following incubation, the viable cell number was quantified by the MTS assay described below. […]
MTS Assay—Cell viability was determined using the MTS assay. […] Formazan production was quantified by spectrophotometric measurement at 490 nm and is proportional to viable cell number. […] Absorbance (OD) values were measured using a Dynex HD microplate reader at a single wavelength of 490 nm.
(§2) Data Analysis—Data from each experiment was collected and expressed as OD490 versus the log10 of the test agent concentration. […]

[3] = tested on: MDA-MB-435 (melanoma) human tumor cell line; test: MTS growth inhibition assay, MDA-MB-435; type: cell-based; conditions: 3 h treatment, 72 h recovery
Protocol: as §1
(§3) Materials and Methods. Preparation of PDX-10a and PDX-10b was performed as discussed in Examples 1-2. The PDX compounds were diluted in dimethylsulfoxide (DMSO) at a concentration of 20 mM. From this solution a stock solution of 2 mM was made by dilution with phosphate-buffered saline (PBS). This 2 mM stock solution in 10% DMSO/90% PBS was used to make 2× concentrations of the titration series in cell growth medium which was added to the cell cultures in a 1:1 ratio to make 1× concentrations. Cell lines—The human tumor cell lines: MDA-MB-435 (melanoma), SKBR-3 (breast cancer) and NCI-H460 (lung cancer) were cultured in RPMI medium (RPMI; Nova Tech, Grand Island, N.Y.) containing ten percent dialyzed fetal bovine serum (FBS; Nova Tech). Once cells reached seventy percent confluency, they were trypsinized and resuspended in an alternate media (RPMI containing five percent dialyzed FBS (Hyclone, Logan, Utah). One day prior to treatment (Day 0), cultures were suspended at a concentration of 1−7.5×10^4 cell/ml and 100 μl aliquots were plated into each well of a 96-well microtiter plate at a final concentration of 1×10^3-7.5×10^3 cells/well. Cells were incubated for 24 hours at 37° C. prior to exposure with agents.
(§4) Test Agents—racemic PDX, and individual diastereomers PDX-10a and PDX-10b were prepared as described above. Cells were treated 24 hours after plating (Day 1) with vehicle (media) alone or the above test agents for three hours at concentrations between 3 μM and 10 μM.
(§5) Single Agent Pulse Studies—Treatment with test agents or standard agents (controls) was initiated 24 hours after plating cells (Day 1). Cells were incubated at 37° C. with each of the test agents or a “chemococktail” (positive control) consisting of 215 μM Etoposide, 20 μM Taxol, 38.5 nM Velcade at final concentration for three hours. Following treatment, drug was removed, growth media added, and cells incubated at 37° C. for 72 hours. Following incubation, the viable cell number was quantified by the MTS assay described below. Experiments were repeated twice at the same concentrations. Results from these studies were used to calculate an IC50 value (concentration of drug that inhibits cell growth by 50% of the vehicle) for each compound. IC50 values were generated with Prizm software.
(§6) MTS Assay—Cell viability was determined using the MTS assay. This colorimetric procedure measures conversion of the MTS reagent (a tetrazolium salt) to formazan by living cells. Formazan production was quantified by spectrophotometric measurement at 490 nm and is proportional to viable cell number. For these studies, cells were cultured and treated as listed above. At the end of the treatment, 20 μl MTS tetrazolium (1.9 mg/ml in PBS, pH 6.0) was added to the cells for 1 hour at 37° C. Absorbance (OD) values were measured using a Dynex HD microplate reader at a single wavelength of 490 nm.
as §2

[4] = tested on: NCI-H460 (lung cancer) human tumor cell line; test: MTS growth inhibition assay, NCI-H460; type: cell-based
Protocol: as §1, §3, §4, §5, §6
Data Analysis—Data from each experiment was collected and expressed as OD490 versus the log10 of the test agent concentration. Using the statistical analysis package of the Prizm analytical software (GraphPad, San Diego, Calif.), a non-linear curve fit was performed which yielded the 50% inhibition concentration of the test article (IC50).

[5] = Pharmacokinetics in rat (PDX-T-07034-R); type: in vivo; conditions: both sexes, plasma, 5 mg/kg, racemic mixture, males and females (mean)
Protocol: (§7) Bioanalytical methods were developed and validated for quantitation of the 2 pralatrexate C10 diastereomers (PDX-10a and PDX-10b) in human, rat and dog plasma and urine. The basic bioanalytical method involves extraction of PDX-10a and PDX-10b from the matrix utilizing C18 solid-phase extraction (SPE) cartridges followed by derivatization (methylation with acetyl chloride) of the diastereomers for separation detection. The derivatized extracts are injected on a chiral high-performance liquid chromatography (HPLC) column for quantitation of each diastereomer by liquid chromatography-tandem mass spectrometry (LC/MS/MS). The lower limit of quantitation (LLOQ) for both diastereomers in plasma and urine matrices was 0.5 ng/mL. […]

[6] = Pharmacokinetics in dog (PDX-T-07054-D); type: in vivo; conditions: both sexes, dog, plasma, 0.7 mg/kg, dog, racemic mixture, males and females (mean)
Protocol: as §7

[7] = Pharmacokinetics in human (PDX-008, noncompartmental); type: in vivo; conditions: both sexes, human, plasma, intravenous, 30 mg/m^2, human, racemic mixture, males and females (mean)
Protocol: Bioanalytical methods were developed and validated for quantitation of the 2 pralatrexate C10 diastereomers (PDX-10a and PDX-10b) in human, rat and dog plasma and urine. The basic bioanalytical method involves extraction of PDX-10a and PDX-10b from the matrix utilizing C18 solid-phase extraction (SPE) cartridges followed by derivatization (methylation with acetyl chloride) of the diastereomers for separation detection. The derivatized extracts are injected on a chiral high-performance liquid chromatography (HPLC) column for quantitation of each diastereomer by liquid chromatography-tandem mass spectrometry (LC/MS/MS). The lower limit of quantitation (LLOQ) for both diastereomers in plasma and urine matrices was 0.5 ng/mL.
In humans, PDX-10b clearance was approximately 50% lower for both renal clearance (CLren) and nonrenal clearance (CLnonren). The lower clearance and ˜2-fold lower volume of distribution at steady state (Vdss) of PDX-10b are likely responsible for the 2-fold higher plasma exposure of PDX-10b compared with PDX-10a that is observed in humans. However, the plasma concentration-time profiles for both diastereomers declined in parallel, and terminal elimination half-life (t1/2term) for both diastereomers was virtually identical. The biological cause for the observed stereoselectivity across species is unknown, but may be due to isomeric differences in plasma protein binding. Isomeric differences in tissue distribution and/or renal and hepatobiliary transport may contribute as well.

[8] = C1D1, 30 mg/m^2 (0.81 mg/kg), n = 10
[9] = C1D6 or C2D6, 30 mg/m^2 (0.81 mg/kg), n = 6

- IC50 [2]: 27.1 nM
- IC50 ([3]; Homo sapiens, MDA-MB-435, MDA-MB-435 (melanoma)): 129 nM
- IC50 ([3]; MDA-MB-435 (melanoma)): 129 nM
- IC50 ([4]; Homo sapiens, NCI-H460, NCI-H460 (lung), 3 h treatment, 72 h recovery, MTS): 100 nM
- IC50 ([4]; Homo sapiens, NCI-H460, NCI-H460 repeat assay): 124 nM
- IC50 ([4]; NCI-H460 repeat assay): 124 nM
- AUC(0-inf) ([5]; Day 1, 5 mg/kg (30 mg/m^2)): 4870 ng·h/mL
- Cmax ([5]; Day 1, 5 mg/kg (30 mg/m^2)): 19200 ng/mL
- AUC(0-inf) ([5]; Day 85, 5 mg/kg (30 mg/m^2)): 4500 ng·h/mL
- Cmax ([5]; Day 85, 5 mg/kg (30 mg/m^2)): 14300 ng/mL
- AUC(0-inf) ([6]; Day 1, 0.7 mg/kg (14 mg/m^2)): 1560 ng·h/mL
- Cmax ([6]; Day 1, 0.7 mg/kg (14 mg/m^2)): 1790 ng/mL
- AUC(0-inf) ([6]; Day 281, 0.7 mg/kg (14 mg/m^2)): 1340 ng·h/mL
- Cmax ([6]; Day 281, 0.7 mg/kg (14 mg/m^2)): 649 ng/mL
- AUC(0-inf) [7, 8]: 4460 ng·h/mL
- Cmax [7, 8]: 5820 ng/mL
- AUC(0-inf) [7, 9]: 3530 ng·h/mL
- Cmax [7, 9]: 4960 ng/mL
Compound: C#CCC(Cc1cnc2nc(N)nc(N)c2n1)c1ccc(C(=O)N[C@@H](CCC(=O)O)C(=O)O)cc1 (mixture of isomers) [PDX, (2S)-2-[[4-[(1RS)-1-[(2,4-diaminopteridin-6-yl)methyl]but-3-ynyl]benzoyl]amino]pentanedioic acid, reference compound]
- IC50 [1]: 8.3 nM
